The results in this text go back to patent publication US20150238466A1, “LIM KINASE INHIBITORS” (RAMOT AT TEL-AVIV UNIVERSITY LTD., priority 2012, published 2015).

Where “and” joins values, the source holds several entries; their conditions need not be identical. Equal values may be shown once.

For one data set, the system named is LIMK. As to the kind of experiment: Western blot of p-cofilin in NF1−/− MEFs. Format: cell-based, mouse. On the procedure: FIG. 3A-B presents an immunoblot and graphical presentation of immunoblots. […] Normalization was performed using beta-tubulin. Average inhibition was calculated as a percentage of control (mean±SD, n=3,*P<0.05; **P<0.01 compared to control (Student's t-test)).
NF1−/− MEFs were plated at a density of lx 10^5 or 5×10^5 cells in 6-well plates or 10-cm dishes, respectively, and were allowed to grow overnight in a medium containing 10% FCS. […] The cells were then lysed with solubilization buffer (50 mMTris-HCl at a pH of 7.6, 20 mM MgCl2, 200 mM NaCl, 0.5% NP40, 1 mM Dithiothreitol, and protease inhibitors), and the lysate (50 μg) was subjected to SDS-PAGE and then immunoblotted with one of the following antibodies: anti-p-cofilin (1:1000), anti-cofilin (1:1000), anti-β-tubulin (1:500). The immunoblots were then exposed to peroxidase-goat anti-rabbit IgG (1:2500), and protein bands were visualized by enhanced chemiluminescence and quantified by densitometry (EZ-Qant). Rabbit anti-cofilin and p-cofilin (Ser3) were from Cell Signaling Technolgy (Beverly, Mass.); mouse anti-β-tubulin antibody was from Sigma-Aldrich; peroxidase-goat anti-mouse IgG and peroxidase-goat anti-rabbit IgG were from Jackson ImmunoResearch Laboratories (West Grove, Pa.).
It has been previously shown that the levels of phosphorylated cofilin (p-cofilin) are high in NF1^−/− Mouse Embryonic Fibroblasts (MEFs). Thus, these cells were used herein to examine the impact of compound 1 on phosphorylation of cofilin.
The cells were lysed and subjected to immunoblotting with anti-p-cofilin, anti-cofilin, and anti-β-tubulin (as loading control) antibodies. […] These findings, taken together, support the predicted LIMK model as well as the predicted LIMK inhibitor.

The test system of data set [1] is NF1−/− MEFs. As to the kind of experiment: Actin stress fibers, rhodamine-phalloidin staining of NF1−/− MEFs. It is filed as cell-based, mouse. The method, then:
MEFs were seeded on glass coverslips in 6-well plates at the densities of 2.5×10^4 cells per well. […] Cells were further incubated for 24 hours and were then fixed, permeabilized, and washed. Rhodamine-labeled phalloidin was added for 30 minutes and the slides were then washed, mounted, and imaged. F-actin was visualized and then photographed under an LSM510 confocal microscope (×63 objective) fitted with rhodamine filters. Statistical analysis was performed by counting 100 cells from each slide, with or without stress fibers, under an Olympus fluorescence microscope.

Data set [2] relates to NF1−/− MEFs. The data set can be described thus: Growth (cell number) of NF1−/− MEFs, direct counting after 5 days. It is filed as cell-based, mouse. The following applies: for inhibition at 5 µM / inhibition at 25 µM: Mus musculus. On the procedure: Cells were directly counted and typical inhibition curves are shown (means±SEM, n=9; **P<0.01, ***P<0.001).
The cells were plated in 24-well plates at a density of 5×10^3 cells per well.

For another data set, the system named is ST-88-swanoma. The data set can be described thus: Growth inhibition of ST-88 cells. It is filed as cell-based. The conditions noted are these: 120 h; ST-88, 5 days; read-out: IC50, reduction of cell number. The text has this:
(§1) Cells were directly counted and typical inhibition curves are shown.

A further data set relates to Panc-1 tumor. As to the kind of experiment: Panc-1 human pancreatic tumor growth in nude mice. The conditions noted are these: for average tumor size: control group 745. It is filed as in vivo, mouse. The text has this:
FIG. 11A—Panc-1 cells were implanted s.c. in the right flank of athymic nude mice. After 7 days, the mice were separated randomly into one vehicle-treated control group and two T-56-LIMKi groups (n=8). […] Tumor volumes (means±S.E.M, * p-value<0.05) during the experiment period are shown. FIG. 11B—The mice were weighted at indicated time point. Presented are average weights of each group (grams±stdev).
Nude CD1-Nu mice (6 weeks old) were housed in barrier facilities on a 12-h light/dark cycle. Food and water were supplied ad libitum. On day zero, 5×10^6 Panc-1 cells in 0.1 ml of PBS were implanted s.c. just above the right femoral joint When tumor volumes reached values of 0.06-0.07 cm3 (day 0 of compound-1 treatment), the mice were randomly separated into three groups. Control mice received vehicle; compound-1-treated mice received 30 or 60 mg/kg T56-LIMKi (oral administration of 0.1 ml with 0.5% CMC daily). Tumor volume was calculated as (length×width)×[(length+width)÷2].
The effects of compound ion human pancreatic tumor growth in nude mice was examined, i.e., on cell transformation in an in vivo model. Mice received 5×10^6 cells subcutaneously (s.c.) in the right flank. […] By day 31, 4 out of 8 tumors in the 60 mg/kg treated group disappeared completely.

In the next data set the test system is U87-glioblastoma. The data set can be described thus: Growth inhibition of U87 cells. Format: cell-based. The conditions noted are these: Homo sapiens, U-87 MG, 120 h; U87, 5 days; read-out: IC50, reduction of cell number.
Source text: as §1

Data set [3] in a line: In-vivo toxicity, single oral dose in nude mice. The following applies: single oral dose 20-100 mg/kg in 0.5% CMC, followed for 2 weeks. The text has this:
The mice were weighted and followed for 14 days after the administration. Average weight of treated mice is presented. (n=2).
The mice were followed for 2 weeks to measure toxic effects.

For another data set, the system named is wt MEFs. The data set can be described thus: Scratch-induced (wound-healing) migration assay, wt MEFs. The conditions noted are these: compound 1 at 50 μM. It is filed as cell-based, mouse. The method, then: (§2) FIG. 6 is a graph showing gap width in NF1−/− MEFs cells examined (mean±SD, n=9), expressed as a percentage of the gap at the time of scratching.
(§3) Scratch-induced migration assay was performed as described in Goldberg et al.. Briefly, NF1-knockout and wt MEFs were seeded on collagen-covered 35-mm plates at a cell density of 1.5×10^5 per plate. […] Three areas were scratched in each plate, creating three gaps of similar widths. The media and the inhibitors were then replenished. Immediately thereafter, and at the time points indicated in the Examples section, phase-contrast images of the plates were obtained with a CCD camera connected to an Olympus fluorescence microscope (×10 objective). The region imaged was marked at time “zero” in order to enable photographing the same area at the different time points, and so that a specific population of migrating cells may be examined. The widths of the gaps treated with the inhibitor were measured at different time points, using the Image-Pro Plus software. […] Statistical analysis of the results was performed, of either the mean gap width (in arbitrary units) of compound 1-treated cells relative to the control at different time points (means±SD, n=9) or the percentage of migration, calculated as the width of the gap still open at the final time point, expressed as a percentage of the gap size at zero time for each treatment (means±SD, n=9). […]

In data set [4] the test system is NF1−/− MEFs. As to the kind of experiment: Scratch-induced (wound-healing) migration assay, NF1−/− MEFs. The conditions noted are these: within 3 hours, compound 1 at 50 μM; untreated cells 50%. Format: cell-based, mouse. On the procedure:
as §2, §3

In data set [5] the test system is Panc-1-pancreatic cancer tumor cell line. The data set can be described thus: Growth inhibition of Panc-1 cells. It is filed as cell-based. The following applies: Homo sapiens, 120 h; Panc-1, 5 days; read-out: IC50, reduction of cell number.
Source text: as §1

Data set [6] concerns NF1−/− MEFs. The data set can be described thus: Anchorage-independent growth in soft agar. Format: cell-based, mouse. The following applies: 25 and 50 μM, 14 days. The method, then:
FIG. 7B is a graph showing a statistical analysis of the anchorage-independent growth experiment. Columns, mean (n=5); bars, SD; *P<0.001.
Noble agar 2% (Difco, Detroit, Mich.) was mixed with DMEM×2 medium, containing 10% FCS, 4 mM L-glutamine, 200 units/mL penicillin, and 0.2 mg/mL streptomycin. The mixture (50 μL) was poured into 96-well plates to provide the agar base at a final agar concentration of 1%. […] The cells were incubated for 14 days and then stained for 4 hours with 1 mg/mL 344,5-dimethylthiazol-2-yl)-2 5-diphenyltetrazolium bromide (MTT; Sigma-Aldrich, St. Louis, Mo.), which stains active mitochondria in living cells, and the colonies were imaged. Colonies larger than 0.16 mm^2 (mean±SD, n=5) were counted using Image-Pro Plus software (Media Cybernetics, Carlsbad, Calif.). The average percentage of colonies in each group (means±SD, n=5) was calculated by dividing the number of colonies of a particular treatment and specific group size by the number of colonies of the same size in the corresponding untreated control group.

Take `CC(C)C(=O)Nc1ncc(-c2cc(C(F)F)nn2-c2c(Cl)cccc2Cl)s1` [BMS-5, N-{5-(2-(2,6-dichloro-phenyl)-5-difluoromethyl-2H-pyrazol-3-yl)-thiazol-2-yl}-isobutyramide, reference compound]: the “reduction of p-cofilin level, potency compared with compound 1” value in the data set on LIMK (similar experiment, 2 hours, NF1−/− MEFs) is “more potent than compound 1”.

In the case of `CC(C)=CCC/C(C)=C/CC/C(C)=C/CSc1ccccc1C(=O)O` [FTS, S-trans, trans-farnesyl thiosalicyclic acid, reference compound], the “decrease in stress fiber formation” value in the data set on NF1−/− MEFs [1] (FTS alone) is recorded as 20%±5.6%. Besides, the growth inhibition in the data set with NF1−/− MEFs [2] (FTS alone (zero compound 1)) is listed as 33%±1.6%.

For the molecule `Cc1cc(C(=O)Nc2cccc(C(=O)Nc3cccc(C(F)(F)F)c3)c2)on1` [compound 1], the IC50 (with ST-88-swanoma; in the data set with U87-glioblastoma; in data set [5]) was approximately 25 µM in each case. For the same molecule, the “significance of the reduction of tumor volume” value with Panc-1 tumor (60 mg/kg daily oral) is reported as “significant from day 18”. Besides, the mouse weight entry with Panc-1 tumor (30 or 60 mg/kg daily oral) is “not affected”. Moreover, the signs of cytotoxicity result in the data set on Panc-1 tumor (30 or 60 mg/kg daily oral) is “no signs of cytotoxicity”. Further, the average tumor size in the data set on Panc-1 tumor (Day 22, 30 mg/kg daily oral) was 488 mm^3; with Panc-1 tumor (Day 22, 60 mg/kg daily oral), 268 mm^3. Also, in the data set on Panc-1 tumor (by day 31, 60 mg/kg daily oral), the “tumors that disappeared completely” value is on record as 4 out of 8. In addition, the body weight entry in [3] is listed as “no weight lost was detected”. For the same molecule, the “toxic effects (appearance of mice)” value is “looked normal at all doses” in data set [3] and “not toxic” in data set [3] (listed as T56-LIMKi). The “mobility of wt MEFs” value in the data set on wt MEFs is “not affected”. This molecule also registered a gap closed in the data set with NF1−/− MEFs [4] of 10%. For the same molecule, the “decrease in the number of cells exhibiting stress fibers” value in the data set with NF1−/− MEFs [1] (compound 1 at 50 μM) was 26%±7.7% and 30%. For the same molecule, the “inhibition of cofilin phosphorylation by LIMK” value in the data set with LIMK (50 μM) is on record as “about 50%”. The “amounts of total cofilin” value in the data set with LIMK (2 hours, NF1−/− MEFs) is recorded as “did not affect”. Besides, in the data set on LIMK (compound 1 at 10-50 μM, 2 hours, serum-starved NF1−/− MEFs), the level of p-cofilin result was “reduced”. For the same molecule, the “colony formation in soft agar” value in the data set on NF1−/− MEFs [6] is on record as “inhibited in a dose-dependent manner”. The inhibition at 5 µM with NF1−/− MEFs [2] (compound 1 at 5 μM in the absence of FTS) was 13%; in the data set with NF1−/− MEFs [2] (compound 1 at 5 μM in the presence of FTS), 60%. Also, the values for the inhibition at 25 µM in the data set with NF1−/− MEFs [2] (compound 1 at 25 μM in the absence of FTS) and in the data set with NF1−/− MEFs [2] (compound 1 at 25 μM in the presence of FTS) were 51% and 85.5%, respectively. The “reduction in cell proliferation” value with NF1−/− MEFs [2] (compound 1 at 50 μM) is on record as 70%.

What is called IC50 is the concentration needed to halve the response being measured. Broadly, the inhibition is the drop in the measured response relative to a control, in per cent.
